assay: Cytotoxicity in uninfected MT-4 cells (MTT assay); assay type: cell-based; conditions: human, uninfected MT-4 cells; concentration that reduces normal uninfected MT-4 cell viability by 50%

SMILES	CC50 at 7 d [µM]
Cc1cc(C#N)cc(C)c1Oc1nc(Nc2ccc(C#N)cc2)nc(N)c1Br [ETR, Etravirine]	> 4.61
Cc1ccnc2c1NC(=O)c1cccnc1N2C1CC1 [NVP, Nevirapine]	> 15

same assay, conditions: human; concentration that reduces normal uninfected MT-4 cell viability by 50%

SMILES	CC50 at 7 d [µM]
O=C1Nc2ccc(Cl)cc2[C@@](C#CC2CC2)(C(F)(F)F)O1 [EFV, Efavirenz]	> 6.34

assay: not given; conditions: not given

SMILES	melting point [°C]
N#Cc1ccc(Nc2nc(Oc3ccc(-c4ccc(C#N)cc4F)cc3)c3sccc3n2)cc1 [Example 1]	272.5 to 273.6
N#Cc1ccc(Nc2nc(Oc3ccc(-c4ccc(C#N)c(F)c4)cc3)c3sccc3n2)cc1 [Example 2]	258.8 to 260.3
N#Cc1ccc(Nc2nc(Oc3ccc(-c4ccc(C#N)cc4Cl)cc3)c3sccc3n2)cc1 [Example 3]	> 300
N#Cc1ccc(Nc2nc(Oc3ccc(-c4ccc(C#N)c(Cl)c4)cc3)c3sccc3n2)cc1 [Example 4]	246.3 to 247.7
Cc1cc(C#N)ccc1-c1ccc(Oc2nc(Nc3ccc(C#N)cc3)nc3ccsc23)cc1 [Example 5]	278.4 to 279.5
Cc1cc(-c2ccc(Oc3nc(Nc4ccc(C#N)cc4)nc4ccsc34)cc2)ccc1C#N [Example 6]	256.5 to 257.9
N#Cc1ccc(Nc2nc(Oc3ccc(-c4ccc(C#N)cc4F)cc3F)c3sccc3n2)cc1 [Example 7]	295.3 to 297
N#Cc1ccc(Nc2nc(Oc3ccc(-c4ccc(C#N)c(F)c4)cc3F)c3sccc3n2)cc1 [Example 8]	> 300
Cc1cc(-c2ccc(C#N)cc2F)ccc1Oc1nc(Nc2ccc(C#N)cc2)nc2ccsc12 [Example 9]	268.5 to 271

Other lines, results leading:

melting point [°C]	SMILES
299.3 to 300.2	Cc1cc(-c2ccc(C#N)c(F)c2)ccc1Oc1nc(Nc2ccc(C#N)cc2)nc2ccsc12 [Example 10]
275.2 to 276.8	Cc1cc(C#N)ccc1-c1ccc(Oc2nc(Nc3ccc(C#N)cc3)nc3ccsc23)c(F)c1 [Example 13]
252.5 to 254.2	Cc1cc(-c2ccc(Oc3nc(Nc4ccc(C#N)cc4)nc4ccsc34)c(F)c2)ccc1C#N [Example 14]
262.4 to 263.7	Cc1cc(-c2ccc(C#N)cc2C)ccc1Oc1nc(Nc2ccc(C#N)cc2)nc2ccsc12 [Example 15]
259.4 to 261.1	Cc1cc(-c2ccc(Oc3nc(Nc4ccc(C#N)cc4)nc4ccsc34)c(C)c2)ccc1C#N [Example 16]
274.3 to 275.8	Cc1cc(C#N)ccc1-c1ccc(Oc2nc(Nc3ccc(C#N)cc3)nc3ccsc23)cc1C [Example 17]
264.9 to 266.2	Cc1cc(-c2ccc(Oc3nc(Nc4ccc(C#N)cc4)nc4ccsc34)cc2C)ccc1C#N [Example 18]

assay: not given; conditions: clinical use; cited from earlier work

SMILES	response rate [%]
Cc1cc(C#N)cc(C)c1Oc1nc(Nc2ccc(C#N)cc2)nc(N)c1Br [ETR, Etravirine]	36.5

From patent publication US11447501B2, “Biphenyl-containing diarylpyrimido compounds, pharmaceutically-acceptable salts thereof, composition and preparation thereof” (Fudan University, priority 2019, dated 2022)
